Reference: ChEMBL document CHEMBL2146404, “O-Hydroxyl- or o-amino benzylamine-tacrine hybrids: multifunctional biometals chelators, antioxidants, and inhibitors of cholinesterase activity and amyloid-β aggregation” (Bioorg Med Chem, 2012)
Calls of active or inactive are those of the source. No cut-off for these calls is given here.

Columns and labels:
Acetylcholinesterase [1] = biological target: Acetylcholinesterase (Electrophorus electricus, UniProt O42275)
Description: Inhibition of electric eel AChE using acetylthiocholine chloride as substrate preincubated for 15 mins by Ellman's method

Cholinesterase = Cholinesterase (Equus caballus, UniProt P81908)
Description: Inhibition of equine serum BuChE using butyrylthiocholine chloride as substrate preincubated for 15 mins by Ellman's method

[2] = Inhibition of […]-pretreated amyloid beta (1 to 42) self-aggregation at 20 uM after 48 hrs by thioflavin T based fluorometric assay
Acetylcholinesterase [3] = biological target: Acetylcholinesterase (Homo sapiens, UniProt P22303); experiment: Inhibition of human recombinant AChE using acetylthiocholine chloride as substrate preincubated for 15 mins by Ellman's method
[4] = Metal chelating activity of the compound assessed as cupric ion complex formation at 40 uM after 30 mins by UV-vis spectrometry; type: functional
[5] = Metal chelating activity of the compound assessed as ferrous ion complex formation at 40 uM after 30 mins by UV-vis spectrometry; type: functional
[6] = Metal chelating activity of the compound assessed as zinc ion complex formation at 40 uM after 30 mins by UV-vis spectrometry; type: functional

Acetylcholinesterase (Electrophorus electricus, UniProt O42275), sequence (O42275 whole entry): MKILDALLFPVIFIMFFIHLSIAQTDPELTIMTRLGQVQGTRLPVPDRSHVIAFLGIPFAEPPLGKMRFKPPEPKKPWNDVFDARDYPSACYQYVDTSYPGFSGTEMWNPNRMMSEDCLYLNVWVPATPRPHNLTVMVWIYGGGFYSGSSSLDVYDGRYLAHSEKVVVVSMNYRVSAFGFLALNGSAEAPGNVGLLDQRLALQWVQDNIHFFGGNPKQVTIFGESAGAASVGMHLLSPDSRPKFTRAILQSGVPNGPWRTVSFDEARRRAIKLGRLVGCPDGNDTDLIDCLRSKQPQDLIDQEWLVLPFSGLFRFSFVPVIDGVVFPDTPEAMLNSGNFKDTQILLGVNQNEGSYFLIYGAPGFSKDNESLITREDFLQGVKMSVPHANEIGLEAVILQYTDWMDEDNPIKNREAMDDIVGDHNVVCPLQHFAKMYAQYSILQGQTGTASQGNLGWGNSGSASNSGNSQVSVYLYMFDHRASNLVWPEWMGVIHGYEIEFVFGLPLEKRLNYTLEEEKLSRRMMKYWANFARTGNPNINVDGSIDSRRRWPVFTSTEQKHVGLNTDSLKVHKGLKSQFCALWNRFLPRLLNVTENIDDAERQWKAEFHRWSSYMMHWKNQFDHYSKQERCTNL
Acetylcholinesterase (Homo sapiens, UniProt P22303), sequence (P22303 whole entry): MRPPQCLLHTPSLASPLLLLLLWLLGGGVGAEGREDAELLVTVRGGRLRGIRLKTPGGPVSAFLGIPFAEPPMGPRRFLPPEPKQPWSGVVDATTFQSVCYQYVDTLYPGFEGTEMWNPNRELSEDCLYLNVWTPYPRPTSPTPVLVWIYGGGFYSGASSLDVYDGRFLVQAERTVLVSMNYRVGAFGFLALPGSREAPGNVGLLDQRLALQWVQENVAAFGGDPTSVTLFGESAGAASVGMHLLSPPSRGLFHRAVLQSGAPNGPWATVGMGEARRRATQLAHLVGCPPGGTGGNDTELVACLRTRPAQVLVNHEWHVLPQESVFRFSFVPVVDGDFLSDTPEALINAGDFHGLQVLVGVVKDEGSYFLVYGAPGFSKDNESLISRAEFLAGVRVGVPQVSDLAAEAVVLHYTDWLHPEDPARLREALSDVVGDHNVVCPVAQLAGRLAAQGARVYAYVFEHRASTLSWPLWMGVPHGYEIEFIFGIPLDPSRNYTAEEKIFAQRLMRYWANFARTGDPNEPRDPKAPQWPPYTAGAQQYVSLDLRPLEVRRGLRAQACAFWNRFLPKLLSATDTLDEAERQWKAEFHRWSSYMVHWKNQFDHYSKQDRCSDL
Cholinesterase, sequence (P81908 whole entry): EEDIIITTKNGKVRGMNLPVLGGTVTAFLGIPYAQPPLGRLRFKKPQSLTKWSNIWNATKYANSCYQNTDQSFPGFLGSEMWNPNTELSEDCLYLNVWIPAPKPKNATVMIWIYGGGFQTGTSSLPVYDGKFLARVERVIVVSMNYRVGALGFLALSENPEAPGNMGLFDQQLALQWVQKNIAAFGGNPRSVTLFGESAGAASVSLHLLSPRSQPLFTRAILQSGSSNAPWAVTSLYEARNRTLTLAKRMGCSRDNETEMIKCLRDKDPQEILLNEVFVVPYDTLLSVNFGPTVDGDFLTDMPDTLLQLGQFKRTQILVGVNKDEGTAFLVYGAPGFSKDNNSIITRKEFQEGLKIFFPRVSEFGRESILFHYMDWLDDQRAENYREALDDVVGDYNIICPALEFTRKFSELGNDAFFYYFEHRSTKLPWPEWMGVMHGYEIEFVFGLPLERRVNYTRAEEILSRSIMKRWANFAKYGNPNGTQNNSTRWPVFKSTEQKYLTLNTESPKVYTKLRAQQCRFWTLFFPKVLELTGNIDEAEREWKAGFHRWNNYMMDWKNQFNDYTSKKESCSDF

Row | SMILES | IC50 (Acetylcholinesterase [1]) [nM] | IC50 (Cholinesterase) [nM] | inhibition [2] [%] | IC50 (Acetylcholinesterase [3]) [nM] | Activity [4] | Activity [5] | Activity [6]
1 | Oc1ccccc1CNCCCCCCCCNc1c2c(nc3cc(Cl)ccc13)CCCC2 | 6.77 | 18.5 | 25.8 |  |  |  | 
2 | Oc1ccccc1CNCCCCCCNc1c2c(nc3ccccc13)CCCC2 | 25.1 | 9.65 |  |  |  |  | 
3 | Oc1ccccc1CNCCCCCCCCNc1c2c(nc3ccccc13)CCCC2 | 6.17 | 6.25 |  |  |  |  | 
4 | Oc1ccccc1CNCCNc1c2c(nc3ccccc13)CCCC2 | 146 | 10 |  |  |  |  | 
5 | c1ccc(CNCCCCCCCCNc2c3c(nc4ccccc24)CCCC3)nc1 | 2.95 | 2.99 |  |  |  |  | 
6 | Oc1ccccc1CNCCCCCCCNc1c2c(nc3ccccc13)CCCC2 | 9.55 | 5.84 |  |  |  |  | 
7 | CN(C)c1ccccc1CNCCCCCCCCNc1c2c(nc3ccccc13)CCCC2 | 1.55 | 2.11 | 38.6 | 4.04 |  |  | 
8 | Oc1ccccc1CNCCCCCCCCCNc1c2c(nc3ccccc13)CCCC2 | 7.52 | 8.2 |  |  |  |  | 
9 | Oc1ccccc1CNCCCCNc1c2c(nc3cc(Cl)ccc13)CCCC2 | 125 | 28.1 |  |  |  |  | 
10 | CN(C)c1ccccc1CNCCCCCCCCCNc1c2c(nc3ccccc13)CCCC2 | 0.55 | 2.65 | 39.4 | 3.52 | Active | Active | Active
11 | Oc1ccccc1CNCCCCNc1c2c(nc3ccccc13)CCCC2 | 252 | 20.3 |  |  |  |  | 
12 | Oc1ccccc1CNCCCCCCCCCNc1c2c(nc3cc(Cl)ccc13)CCCC2 | 7.78 | 23 |  |  |  |  | 
13 | Oc1ccccc1CNCCCCCCNc1c2c(nc3cc(Cl)ccc13)CCCC2 | 43 | 11.1 |  |  |  |  | 
14 | CN(C)c1ccccc1CNCCCCCCCNc1c2c(nc3ccccc13)CCCC2 | 3.5 | 2.92 | 30.7 | 5.18 |  |  | 
15 | Oc1ccccc1CNCCCNc1c2c(nc3cc(Cl)ccc13)CCCC2 | 43.3 | 76.5 |  |  |  |  | 
16 | Oc1ccccc1CNCCCNc1c2c(nc3ccccc13)CCCC2 | 131 | 46.1 |  |  |  |  | 
17 | Oc1ccccc1CNCCNc1c2c(nc3cc(Cl)ccc13)CCCC2 | 22.5 | 9.97 |  |  |  |  | 
18 | CCN(CC)c1ccccc1CNCCCCCCCCNc1c2c(nc3ccccc13)CCCC2 | 1.36 | 2.82 | 40.1 |  |  |  | 
19 | Oc1ccccc1CNCCCCCCCNc1c2c(nc3cc(Cl)ccc13)CCCC2 | 10.5 | 17.8 |  |  |  |  | 
